According to patent US9580430B2, “9H-pyrimido[4,5-B]indoles and related analogs as BET bromodomain inhibitors” (THE REGENTS OF THE UNIVERSITY OF MICHIGAN, priority 2014, dated 2017):
pIC50, pKi: −log10 of the molar value. Where two headings read alike, the source gives them in different places.

Experiments:
recombinant BRD4 BD1 = target: T1, recombinant BRD4 BD1 (Homo sapiens, UniProt O60885); test: Competitive fluorescence-polarization (FP) binding assay, BRD4 BD1; settings: for IC50: competitive FP assay, protein 10 nM, probe […], read-out: IC50 (nM) BRD4 BD1; for pIC50 / pKi: FP competitive binding, BRD4 BD1; for pIC50: read-out: Binding affinities (FP) BRD4BD1 IC50; for pKi: read-out: Binding affinities (FP) BRD4BD1 Ki; for IC50 (nM) BRD4 BD1: probe 1.5 nM
T1 construct: for recombinant BRD4 BD1 and BRD4 BD2 proteins
Procedure: (§1) Fluorescence Polarization (FP) competitive binding studies were carried out using a FAM labeled fluorescent probe (ZBA248 or BRD-1F) to determine binding affinities of representative Compounds of the Disclosure for recombinant BRD4 BD1 and BRD4 BD2 proteins. For example, equilibrium dissociation constants (Kd) values of ZBA248 to these […] proteins were determined from protein saturation experiments by monitoring the total fluorescence polarization of mixtures composed with the fluorescent probe at a fixed concentration and proteins with increasing concentrations up to full saturation. Serial dilutions of testing protein were mixed with ZBA248 to a final volume of 200 μl in the assay buffer. […] Plates were incubated at room temperature for 30 minutes with gentle shaking to assure equilibrium. […] Kd values of ZBA248 were calculated by fitting the sigmoidal dose-dependent FP increases as a function of protein concentrations using Graphpad Prism 6.0 software (Graphpad Software, San Diego, Calif.).
(§2) The IC50 and Ki values of representative Compounds of the Disclosure were determined in a competitive binding experiment as described above. Mixtures of 10 μl of the tested compounds in assay buffer with 40% Ethylene Glycol and 190 μl of preincubated protein/probe complex solution in the assay buffer (100 mM potassium phosphate, pH 6.5, 0.01% Triton X-100) were added into assay plates which were incubated at room temperature for 30 minutes with gentle shaking. Final concentrations of proteins were 10 and 6 nM in assays for BD1 and BD2 of BRD4, respectively. […] FP values were measured as described above. IC50 values were determined by nonlinear regression fitting of the competition curves.

recombinant BRD4 BD2 = target: T2, recombinant BRD4 BD2 (Homo sapiens, UniProt O60885); test: Competitive fluorescence-polarization (FP) binding assay, BRD4 BD2; settings: for IC50: competitive FP assay, protein 6 nM, probe […], read-out: IC50 (nM) BRD4 BD2; for pIC50 / pKi: FP competitive binding, BRD4 BD2; for pIC50: read-out: Binding affinities (FP) BRD4BD2 IC50; for pKi: read-out: Binding affinities (FP) BRD4BD2 Ki; for IC50 (nM) BRD4 BD2: probe 1.5 nM
T2 construct: for recombinant BRD4 BD1 and BRD4 BD2 proteins
Procedure: as §1, §2

Structure (SMILES) | IC50 (recombinant BRD4 BD1) [nM] | IC50 (recombinant BRD4 BD2) [nM] | pIC50 (recombinant BRD4 BD1) | pKi (recombinant BRD4 BD1) | pIC50 (recombinant BRD4 BD2) | pKi (recombinant BRD4 BD2)
COc1cc2c(cc1-c1c(C)noc1C)[nH]c1nc(C)nc(Sc3ccccc3C(C)C)c12 [Cpd. No. 25, 4-(4-((2-isopropylphenyl)thio)-6-methoxy-2-methyl-9H-pyrimido[4,5-b]indol-7-yl)-3,5-dimethylisoxazole] | > 1000 | > 1000 | – | – | – | –
COc1cc2c(cc1-c1c(C)noc1C)[nH]c1nc(C)nc(Nc3ccnc(C)c3)c12 [Cpd. No. 248, 7-(3,5-dimethylisoxazol-4-yl)-6-methoxy-2-methyl-N-(2-methylpyridin-4-yl)-9H-pyrimido[4,5-b]indol-4-amine] | 70 | 79 | – | – | – | –
COCc1nc(Nc2cc(C3CC3)nn2C)c2c(n1)[nH]c1cc(-c3c(C)noc3C)c(OC)cc12 [Cpd. No. 207, N-(3-cyclopropyl-1-methyl-1H-pyrazol-5-yl)-7-(3,5-dimethylisoxazol-4-yl)-6-methoxy-2-(methoxymethyl)-9H-pyrimido[4,5-b]indol-4-amine] | 2.9 | 1.3 | – | – | – | –
COc1cc2c(cc1-c1c(C)noc1C)[nH]c1nc(C)nc(Oc3cccnc3)c12 [Cpd. No. 96, 4-(6-methoxy-2-methyl-4-(pyridin-3-yloxy)-9H-pyrimido[4,5-b]indol-7-yl)-3,5-dimethylisoxazole] | 864 | 379 | – | – | – | –
COc1cc2c(cc1-c1c(C)noc1C)[nH]c1nc(C)nc(Nc3cc(C4CC4)nn3CCN(C)C)c12 [Cpd. No. 160, N-(3-Cyclopropyl-1-(2-(dimethylamino)ethyl)-1H-pyrazol-5-yl)-7-(3,5-dimethylisoxazol-4-yl)-6-methoxy-2-methyl-9H-pyrimido[4,5-b]indol-4-amine] | 14.1 | – | – | – | – | –
COc1cc2c(cc1-c1c(C)noc1C)[nH]c1nc(N)nc(Nc3cc(C4CC4)nn3C)c12 [Cpd. No. 206, N4-(3-cyclopropyl-1-methyl-1H-pyrazol-5-yl)-7-(3,5-dimethylisoxazol-4-yl)-6-methoxy-9H-pyrimido[4,5-b]indole-2,4-diamine] | 5.6 | – | – | – | – | –
COc1cc2c(nc1-c1c(C)noc1C)[nH]c1nc(C)nc(Nc3cc(C4CC4)nn3C)c12 [Cpd. No. 304] | – | – | 7.20 | 7.82 | 6.50 | 7.03
CCn1nc(C2CC2)cc1Nc1nccc2[nH]c3cc(-c4c(C)noc4C)c(OC)cc3c12 [Cpd. No. 285, N-(3-cyclopropyl-1-ethyl-1H-pyrazol-5-yl)-7-(3,5-dimethylisoxazol-4-yl)-8-methoxy-5H-pyrido[4,3-b]indol-1-amine] | – | – | 7.72 | 8.43 | 8.01 | 8.68
COc1cc2c(cc1-c1c(C)noc1C)[nH]c1nc(C)nc(Oc3cccc(Cl)c3)c12 [Cpd. No. 95, 4-(4-(3-chlorophenoxy)-6-methoxy-2-methyl-9H-pyrimido[4,5-b]indol-7-yl)-3,5-dimethylisoxazole] | > 1000 | > 1000 | – | – | – | –
COc1cc2c(cc1-c1c(C)noc1C)[nH]c1ccnc(Nc3c4c(nn3C(C)C)CCC4)c12 [Cpd. No. 286, 7-(3,5-dimethylisoxazol-4-yl)-N-(2-isopropyl-2,4,5,6-tetrahydrocyclopenta[c]pyrazol-3-yl)-8-methoxy-5H-pyrido[4,3-b]indol-1-amine] | – | – | 7.54 | 8.29 | 7.73 | 8.34
COc1cc2c(cc1-c1c(C)noc1C)[nH]c1nc(C)nc(Sc3cccc(C(C)(C)C)c3)c12 [Cpd. No. 27, 4-(4-((3-(tert-butyl)phenyl)thio)-6-methoxy-2-methyl-9H-pyrimido[4,5-b]indol-7-yl)-3,5-dimethylisoxazole] | > 1000 | > 1000 | – | – | – | –
COc1cc2c(cc1-c1c(C)noc1C)[nH]c1nc(C)nc(Nc3cc(C4CC4)nn3C3CNC3)c12 [Cpd. No. 163, N-(1-(Azetidin-3-yl)-3-cyclopropyl-1H-pyrazol-5-yl)-7-(3,5-dimethylisoxazol-4-yl)-6-methoxy-2-methyl-9H-pyrimido[4,5-b]indol-4-amine] | 8.8 | – | – | – | – | –
